Results reported in ChEMBL document CHEMBL3991948, “Rab7 GTPase inhibitors and related methods of treatment” (2014).
Blank lines part the entries; values can stand above or below the compound they belong to. Active and inactive are the calls of the source. The rule behind the calls is not given here.

What was measured:
[1] = target: Ras-related protein Rab-7a (Homo sapiens) (UniProt P51149); test: Displacement of BODIPY-GTP from nucleotide binding site of wild-type GST-tagged Rab7 GTPase (unknown origin) expressed in Escherichia coli BL21(DE3) in EDTA buffer assessed as residual activity after 2 hrs by flow cytometry
Sequence of Ras-related protein Rab-7a (Homo sapiens) (P51149 whole entry): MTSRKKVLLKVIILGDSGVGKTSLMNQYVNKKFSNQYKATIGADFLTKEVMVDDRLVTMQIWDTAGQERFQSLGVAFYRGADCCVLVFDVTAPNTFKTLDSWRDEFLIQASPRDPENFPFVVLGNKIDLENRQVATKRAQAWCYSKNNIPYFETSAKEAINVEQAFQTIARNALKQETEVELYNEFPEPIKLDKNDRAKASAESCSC

[2] = target: Ras-related protein Rab-7a (Homo sapiens) (UniProt P51149); test: Displacement of BODIPY-GTP from nucleotide binding site of wild-type GST-tagged Rab7 GTPase (unknown origin) expressed in Escherichia coli BL21(DE3) after 2 hrs by flow cytometry relative to untreated control
[3] = target: Ras-related protein Rab-7a (Homo sapiens) (UniProt P51149); test: Displacement of BODIPY-GTP from nucleotide binding site of wild-type GST-tagged Rab7 GTPase (unknown origin) expressed in Escherichia coli BL21(DE3) in Mg buffer assessed as residual activity after 2 hrs by flow cytometry
[4] = target: T1, Integrin alpha-4/beta-1 (Homo sapiens) (UniProt P05556+P13612); test: Inhibition of FITC-LDV peptide binding to VLA4 in human U937 deltaST cells at 10 to 50 uM by FACScan flow cytometry; type: cell-based
[5] = Cytotoxicity against human U937 cells assessed as cell viability at 100 uM after 24 hrs by cell counting method (reference value: 94%); type: cell-based, U-937; conditions: read-out: Activity
[6] = Chemical stability of the compound after 72 hrs in presence of 1 to 2.4 mg L-glutathione by LCMS analysis; type: physicochemical
[7] = target: T1, Integrin alpha-4/beta-1 (Homo sapiens); test: Inhibition of FITC-LDV peptide binding to VLA4 in human U937 deltaST cells at 10 to 100 uM by FACScan flow cytometry; type: cell-based
[8] = target: T1, Integrin alpha-4/beta-1 (Homo sapiens); test: Inhibition of FITC-LDV peptide binding to VLA4 in human U937 deltaST cells at 30 uM by FACScan flow cytometry; type: cell-based

Structure (SMILES): CC1(C)Cc2c(sc(NC(=S)NC(=O)c3ccc(F)cc3)c2C(=O)O)CO1
Activity [1]: 100%

Structure (SMILES): Nc1nc2c(ncn2[C@@H]2O[C@H](COP(=O)(O)OP(=O)(O)O)[C@@H](O)[C@H]2O)c(=O)[nH]1
inhibition [2]: Active

Structure (SMILES): O=C(NC(=S)Nc1sc2c(c1C(=O)O)CCOC2)c1ccccc1
Activity [1]: 91%
Activity [3]: 45%
inhibition [4]: Active
viability at 24 h, 100 µM [5]: 92%

Structure (SMILES): CC1Cc2c(sc(NC(=S)NC(=O)c3ccccc3)c2C(=O)O)CO1 (centres undefined)
Activity [1]: 91%
Activity [3]: 56%
viability at 24 h, 100 µM [5]: 94%

Structure (SMILES): Nc1nc2c(ncn2[C@@H]2O[C@H](COP(=O)(O)OP(=O)(O)OP(=O)(O)O)[C@@H](O)[C@H]2O)c(=O)[nH]1
inhibition [2]: Active

Second part, led by results:

Stability [6]: Stable
inhibition [7]: Active
Structure (SMILES): CC1(C)Cc2c(sc(NC(=S)NC(=O)c3ccccc3)c2C(=O)O)CO1

inhibition [8]: Active
Structure (SMILES): CC1(C)Cc2c(sc(NC(=O)NC(=O)c3ccccc3)c2C(=O)O)CO1
viability at 24 h, 100 µM [5]: 98%
